These results are taken from article PMC5749684, “Tetrahydrocarbazoles are a novel class of potent P-type ATPase inhibitors with antifungal activity” (PLoS ONE, 2018).

The subject of the test is C. albicans cells. Kind of test: Post-antifungal effect determination. The test is classed as cell-based, Candida albicans. The following applies: 1 h exposure of C. albicans; AMB 0.54 μM, VRC 2.8 μM, 6 and 8 20 μM. On the procedure:
The post-antifungal effect (PAFE) of antifungal drugs on C. albicans was determined as described by others, with modifications. Briefly, 2 × 10^6 CFU/mL C. albicans cells were incubated in 1 mL RPMI-1640 media for 1 h at 30°C with gentle agitation in the presence of amphotericin B (0.54 μM), voriconazole (2.8 μM) or tetrahydrocarbazole compound (20 μM). Cells were subsequently washed in RPMI media 3 times by centrifugation (3 minutes, 5,000 x g) and finally re-suspended in 1 mL fresh RPMI medium and incubated at 30°C for 24 h. At various time intervals, a 100 μL aliquot was removed, serially diluted (10-fold) in saline (0.9% NaCl), and 30 μL aliquots were spread on YPD agar. The agar plates were incubated at 30°C for 48 h and the number of CFU/mL of culture was determined. C. albicans cells treated with DMSO (1%, v/v) served as a control. The number of CFU/mL obtained at specified time intervals was plotted against time (h) following compound removal. An increase in the CFU/mL of culture signifies growth and multiplication of yeast cells. The duration required for the antifungal drug-treated cells to recover from the inhibitory effect of the drug as indicated by an increase in CFU/mL of culture is defined as the PAFE.

Take `FC(F)(F)Oc1ccc2c3c([nH]c2c1)C(NCc1ccc(Cl)cc1)CCC3` (centres unmarked) [Compound 6]: the “Post-antifungal effect (PAFE)” value was determined as 5 h.

For the molecule `FC(F)(F)Oc1ccc2c3c([nH]c2c1)C(NCCOc1ccc(Cl)cc1)CCC3` (centres unmarked) [Compound 8], the “Post-antifungal effect (PAFE)” value was found to be 5 h.
